PubChem BioAssay (NCI)
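48-hour exposure; five concentrations; linearly interpolated endpoints. GI50: concentration for 50% inhibition of growth. TGI: concentration producing complete growth inhibition.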

Columns and labels:
Assay in all cases: NCI tumour cell line growth inhibition, 48 h
U251 CNS = test system: U251 CNS
T-47D breast = test system: T-47D breast
IGROV1 ovarian = test system: IGROV1 ovarian
NCI/ADR-RES ovarian = test system: NCI/ADR-RES ovarian
HL-60(TB) leukemia = test system: HL-60(TB) leukemia
MOLT-4 leukemia = test system: MOLT-4 leukemia
SNB-75 CNS = test system: SNB-75 CNS
LOX IMVI melanoma = test system: LOX IMVI melanoma
SR leukemia = test system: SR leukemia
MDA-MB-231 breast = test system: MDA-MB-231 breast

SMILES | GI50 (U251 CNS) | TGI (U251 CNS) | GI50 (T-47D breast) | TGI (T-47D breast) | GI50 (IGROV1 ovarian) | TGI (IGROV1 ovarian) | GI50 (NCI/ADR-RES ovarian) | TGI (NCI/ADR-RES ovarian) | GI50 (HL-60(TB) leukemia) | TGI (HL-60(TB) leukemia) | GI50 (MOLT-4 leukemia) | TGI (MOLT-4 leukemia) | GI50 (SNB-75 CNS) | TGI (SNB-75 CNS) | GI50 (LOX IMVI melanoma) | TGI (LOX IMVI melanoma) | GI50 (SR leukemia) | TGI (SR leukemia) | GI50 (MDA-MB-231 breast) | TGI (MDA-MB-231 breast)
O=S(=O)(NCCNc1nccc(-c2c(-c3ccc(F)cc3)nc3sccn23)n1)c1ccc(O)cc1 | 1.36 µM | 23.4 µM | 2.36 µM | 19.2 µM | 1.7 µM | 13.7 µM | 19.5 µM | > 100 µM | 4.93 µM | 30.5 µM | 3.21 µM | 15.7 µM | 1.68 µM | 13.1 µM | 1.88 µM | 49.6 µM | 1.82 µM | 21.5 µM | 7.77 µM | 70.1 µM
Nc1c(C(=O)Nc2cccc(Cl)c2)sc2nc3c(cc12)C(O)CCC3 (stereo unspecified) | 0.379 µM | 13.6 µM | 0.463 µM | 53.2 µM | 0.992 µM | 40.7 µM | 0.583 µM | > 100 µM | 0.234 µM | 0.821 µM | 0.488 µM | > 57.7 µM | 0.373 µM | 21.6 µM | 0.762 µM | 52.1 µM | 0.258 µM | 28.6 µM | 1.92 µM | 49.1 µM
CC(=O)Oc1ccc(C2OC(c3ccc4ccccc4c3OC(C)=O)=NN2C(C)=O)c(OC(C)=O)c1 (stereo unspecified) | 0.316 µM | 30.4 µM | 0.664 µM | > 52.6 µM | 0.348 µM | 15.1 µM | 0.394 µM | > 74.1 µM | 0.267 µM | 4.82 µM | 0.454 µM | > 100 µM | 1.13 µM | > 31.4 µM | 0.301 µM | 33.8 µM | 0.198 µM | > 34.5 µM | 0.506 µM | > 89.6 µM
COc1cc2c(Nc3ccc(-c4ccc(N)cc4)cc3)ncnc2c(OC)c1OC | 7.93 µM | > 100 µM | 5.13 µM | 86.7 µM | 12.6 µM | > 100 µM | 4.54 µM | > 100 µM | 2.54 µM | 20.4 µM | 4.05 µM | > 100 µM | 16.6 µM | 64.9 µM | 0.438 µM | > 100 µM | 5.5 µM | 84.9 µM | 2.9 µM | > 100 µM
CC(C)c1cnc(-c2cc(Cl)ccc2F)cc1Nc1ccncc1C(=O)NC(CO)CO | 14.9 µM | 33.9 µM | 4.5 µM | 34.8 µM | 10.3 µM | 35.4 µM | 20.8 µM | 63.2 µM | 20.1 µM | 60.7 µM | 11.7 µM | 39.3 µM | 0.0515 µM | 25.9 µM | 13.7 µM | 27.9 µM | 16.2 µM | 53.7 µM | 15.3 µM | 44.3 µM
COc1cccc2nc(Nc3cccc(NC(=O)c4ccc(N5CCN(C)CC5)c(C(F)(F)F)c4)c3)ccc12 | 0.885 µM | 1.68 µM | 1 µM | 3.37 µM | 1.25 µM | 4.24 µM | 1.5 µM | 4.95 µM | 1.07 µM | 2.35 µM | 0.876 µM | 2.27 µM | 0.695 µM | 1.68 µM | 0.874 µM | 1.57 µM | 1.13 µM | 3.45 µM | 1.55 µM | 5.88 µM
Cc1cc(O)ccc1C1(c2ccc(O)cc2C)OC(=O)c2ccccc21 | 19.9 µM | 36.6 µM | 20.2 µM | 41.3 µM | 21 µM | 47.5 µM | 21.1 µM | 49.6 µM | 22.8 µM | 64.2 µM | 23.8 µM | 58.9 µM | 15.1 µM | 29.5 µM | 18.5 µM | 37.7 µM | 30.3 µM | > 100 µM | 21.4 µM | 48.9 µM
c1cc[n+](Cc2c3ccccc3cc3c2ccc2ccccc23)cc1 | 1.1 µM | 6.37 µM | 2.34 µM | 7.92 µM | 1.67 µM | 5.93 µM | > 100 µM | > 100 µM | 3.15 µM | 12.5 µM | 3.26 µM | 14.7 µM | 1.35 µM | 5.36 µM | 3.72 µM | 15.8 µM | 2.64 µM | 11.6 µM | 6.08 µM | 20 µM
COc1ccc(OC)c(C2=C(c3cn(C)c4ccccc34)C(=O)NC2=O)c1 | > 25 µM | > 25 µM | > 25 µM | > 25 µM | > 25 µM | > 25 µM | > 25 µM | > 25 µM | > 18.8 µM | > 25 µM | 24.6 µM | > 25 µM | > 25 µM | > 25 µM | > 25 µM | > 25 µM | 16.1 µM | > 25 µM | > 25 µM | > 25 µM
CCCCCCCCCCCCCCCC(=O)NS(=O)(=O)OC[C@H]1O[C@@H](n2cnc3c(N)ncnc32)[C@H](O)[C@@H]1O | < 0.0162 µM | < 0.0277 µM | 0.275 µM | 1.34 µM | 0.0371 µM | 0.199 µM | 0.0917 µM | 3.55 µM | 0.454 µM | 4.72 µM | 0.962 µM | 8.92 µM | < 0.0471 µM | 1.29 µM | 0.394 µM | 1.58 µM | < 0.021 µM | 4.38 µM | 0.381 µM | 1.71 µM
COc1ccc2c(c1)OCC1c3cc(OC)c4ccccc4c3OC21 (stereo unspecified) | 9.95 µM | 67 µM | 13.7 µM | 47 µM | 4.98 µM | 21.6 µM | 4 µM | 28.2 µM | 2.61 µM | 9.61 µM | 9.82 µM | > 100 µM | 11.8 µM | 47.9 µM | 16.5 µM | > 100 µM | 3.89 µM | 16.6 µM | 8.68 µM | 82.9 µM
C=C(C)COc1ccc2c(c1)CCC1C2CCC2(C)C(=O)/C(=N/O)CC12 (stereo unspecified) |  | 16.3 µM |  | 8.61 µM |  | 4.6 µM |  | 21.8 µM |  | 5.92 µM |  | 6.05 µM |  | 11.9 µM |  | 13.9 µM |  | 4.14 µM |  | 4.93 µM
COc1cc(/C=C2\CCC/C(=C\c3cc(CN4CCCC4)c(O)c(OC)c3)C2=O)cc(CN2CCCC2)c1O | 3.03 µM | 11.2 µM | 7.97 µM | 22.3 µM | 3.24 µM | 13.3 µM | 3.47 µM | > 100 µM | 2.15 µM | 5.75 µM | 2.43 µM | 8.98 µM | 5.02 µM | 47.9 µM | 1.74 µM | 3.36 µM | 2.56 µM | 11.8 µM | 3.81 µM | 12.8 µM
COc1ccc2nc3cc([N+](=O)[O-])ccc3c(NCCO)c2c1 | 1.44 µM |  | 0.539 µM | 4.65 µM | 3.17 µM | 13.6 µM | 10 µM |  | 3.03 µM |  | 1.14 µM | 6.34 µM | 2.92 µM | 16.1 µM | 2.51 µM | 9.18 µM | 3.13 µM |  | 4.4 µM | 28.1 µM
Cc1[nH]c(C(=O)Nc2cccc(OC3CCNCC3)c2)c(Cl)c1Cl | 1.93 µM | 4.19 µM | 1.96 µM | 4.52 µM | 1.76 µM | 3.37 µM | 1.84 µM | 3.47 µM | 1.91 µM | 4.08 µM | 1.94 µM | 4.12 µM | 1.13 µM | 2.65 µM | 1.66 µM | 3.16 µM | 2.02 µM | 5.09 µM | 1.74 µM | 3.45 µM
COc1ccccc1/C=C1\CCC(Cc2ccccc2)(CN(C)C)C1=O (stereo unspecified) |  | 45.5 µM |  | > 100 µM |  | > 41.2 µM |  | > 100 µM |  | 15.1 µM |  | 38.9 µM |  | > 88.9 µM |  | 29.4 µM |  | 3.53 µM |  | 46.7 µM
CNC(=O)/C=C/C1=CN2C(=O)c3ccc(C)c(O)c3NC(OC)C2C1 (stereo unspecified) |  | 1.67 µM |  | < 0.0489 µM |  | > 100 µM |  | < 0.0323 µM |  | 0.865 µM |  | > 8.39 µM |  | < 0.0269 µM |  | 4.19 µM |  | 0.0598 µM |  | < 0.0397 µM
COc1ccc2[nH]c(C(=O)OCc3ccc4c(Br)cc(Br)c(O)c4n3)cc2c1 | 1.49 µM | 2.92 µM | 1.15 µM | 3.57 µM | 0.418 µM | 1.67 µM | 1.68 µM | 7.3 µM | 0.7 µM | 3.41 µM | 0.452 µM | 2.17 µM | 0.307 µM | 1.73 µM | 0.188 µM | 0.453 µM | 0.293 µM | 2.04 µM | 0.808 µM | 2.17 µM
C=C(C(=O)c1ccccc1)C(NC(C)(C)C)c1ccccc1 (stereo unspecified) | 2.2 µM | 6.21 µM | 2.44 µM | 6.78 µM | 2.3 µM | 6.9 µM | 2.63 µM | 12.4 µM | 2.03 µM | 7.82 µM | 1.76 µM | 21.9 µM | 4 µM | 16.6 µM | 1.46 µM | 2.97 µM | 1.56 µM | 8.41 µM | 2.06 µM | 4.84 µM
